Test results published in ChEMBL document CHEMBL1149978, “Synthesis of adamantane spiro sultones as potential antiviral agents” (Bioorg Med Chem Lett, 1992).
The source made the active and inactive calls.

How the values were obtained:
[1] = tested on: Human immunodeficiency virus 1; assay: Antiviral activity against human immunodeficiency virus type 1 (HIV-1) at concentrations up to 200 ug/mL; NA means Inactive; assay type: functional, organism-based
Influenza B virus = assay: Antiviral activity against influenza-B at concentrations up to 200 ug/mL; NA means Inactive; assay type: functional, organism-based
Influenza A virus = assay: Antiviral activity against influenza-A at concentrations up to 200 ug/mL; NA means Inactive; assay type: functional, organism-based
[2] = tested on: Human immunodeficiency virus 2; assay: Antiviral activity against human immunodeficiency virus type 2 (HIV-2) at concentrations up to 200 ug/mL; NA means Inactive; assay type: functional, organism-based
Human respirovirus 3 = assay: Antiviral activity against parainfluenza-3 at concentrations up to 200 ug/mL; NA means Inactive; assay type: functional, organism-based
[3] = Antiviral activity against measles at concentrations up to 200 ug/mL; NA means Inactive; assay type: functional
[4] = Antiviral activity against respiratory syncytial at concentrations up to 200 ug/mL; NA means Inactive; assay type: functional

Measured: Activity

NC1=CS(=O)(=O)OC12C1CC3CC(C1)CC2C3 (configuration not stated)
not listed: [3] | [4]
inactive: all other assays above

O=C1CS(=O)(=O)OC12C1CC3CC(C1)CC2C3 (configuration not stated)
inactive: all assays above
